Tests used:
[1] = Oral bioavailability in Sprague-Dawley rat at 2 umol/kg, po; format: ADME, organism-based; conditions: in vivo
[2] = Clearance in Sprague-Dawley rat at 2 umol/kg, iv; format: ADME, organism-based; conditions: in vivo
[3] = Stability in rat liver microsome after 30 mins; format: ADME; conditions: liver microsomes, read-out: Stability
[4] = target: T1, Cholecystokinin receptor type A (Homo sapiens, UniProt P32238)
T1 sequence (P32238 whole entry): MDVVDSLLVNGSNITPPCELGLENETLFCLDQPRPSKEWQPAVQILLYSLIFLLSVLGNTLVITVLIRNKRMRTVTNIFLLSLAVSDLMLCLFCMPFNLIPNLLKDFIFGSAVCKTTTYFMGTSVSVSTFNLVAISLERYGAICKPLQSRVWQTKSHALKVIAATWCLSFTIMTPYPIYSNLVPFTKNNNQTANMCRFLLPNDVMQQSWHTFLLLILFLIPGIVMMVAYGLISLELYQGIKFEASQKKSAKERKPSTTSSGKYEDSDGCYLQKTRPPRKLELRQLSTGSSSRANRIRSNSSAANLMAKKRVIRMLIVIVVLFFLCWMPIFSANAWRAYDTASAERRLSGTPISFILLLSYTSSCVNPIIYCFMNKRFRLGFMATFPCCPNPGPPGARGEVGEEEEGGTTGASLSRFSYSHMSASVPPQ
Description: Displacement of [125I]CCK-8S from human CCK1R

[5] = Half life in Sprague-Dawley rat at 2 umol/kg, iv; format: ADME, organism-based; conditions: in vivo
[6] = Stability in human liver microsome after 30 mins; format: ADME; conditions: liver microsomes, read-out: Stability
[7] = target: T2, Gastrin/cholecystokinin type B receptor (Homo sapiens, UniProt P32239); conditions: read-out: Log Ki (converted)
T2 sequence (P32239 whole entry): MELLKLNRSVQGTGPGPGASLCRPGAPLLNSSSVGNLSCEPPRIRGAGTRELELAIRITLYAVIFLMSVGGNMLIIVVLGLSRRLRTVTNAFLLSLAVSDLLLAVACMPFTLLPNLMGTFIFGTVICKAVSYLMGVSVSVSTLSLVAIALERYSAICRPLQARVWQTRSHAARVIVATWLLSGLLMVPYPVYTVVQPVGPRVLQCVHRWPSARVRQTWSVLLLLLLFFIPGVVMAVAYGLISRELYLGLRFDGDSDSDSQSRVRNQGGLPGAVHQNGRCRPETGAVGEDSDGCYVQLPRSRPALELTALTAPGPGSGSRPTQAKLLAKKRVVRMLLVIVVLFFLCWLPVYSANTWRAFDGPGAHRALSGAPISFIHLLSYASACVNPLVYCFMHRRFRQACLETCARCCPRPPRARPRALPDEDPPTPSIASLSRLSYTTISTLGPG
Description: Displacement of [125I]CCK-8S from human CCK2R

[8] = Clearance in Beagle dog at 2 umol/kg, iv; format: ADME, organism-based, Canis lupus familiaris; conditions: in vivo
[9] = species on record: Cavia porcellus; test: Antagonizing effect on penta gastrin-stimulated guinea pig gastric smooth muscle contraction by Schild analysis; format: functional, Muscle tissue
[10] = tested on: Rattus norvegicus; test: Inhibition of pentagastrin-stimulated gastric acid secretion in iv dosed anesthetized rat measured as increase in pH; format: functional, Stomach
[11] = species on record: Rattus norvegicus; test: Plasma concentration in rat; format: ADME, organism-based; conditions: in vivo
[12] = Half life in Beagle dog at 2 umol/kg, iv; format: ADME, organism-based, Canis lupus familiaris; conditions: in vivo
[13] = Oral bioavailability in Beagle dog at 20 umol/kg, po; format: ADME, organism-based, Canis lupus familiaris; conditions: in vivo
[14] = target: T3, Cholecystokinin receptor type A (Cavia porcellus) (UniProt Q63931); test: Antagonizing effect on CCK-8S-stimulated guinea pig gall bladder smooth muscle contraction by Schild analysis; format: functional, tissue-based; conditions: Muscle tissue
T3 sequence (whole entry): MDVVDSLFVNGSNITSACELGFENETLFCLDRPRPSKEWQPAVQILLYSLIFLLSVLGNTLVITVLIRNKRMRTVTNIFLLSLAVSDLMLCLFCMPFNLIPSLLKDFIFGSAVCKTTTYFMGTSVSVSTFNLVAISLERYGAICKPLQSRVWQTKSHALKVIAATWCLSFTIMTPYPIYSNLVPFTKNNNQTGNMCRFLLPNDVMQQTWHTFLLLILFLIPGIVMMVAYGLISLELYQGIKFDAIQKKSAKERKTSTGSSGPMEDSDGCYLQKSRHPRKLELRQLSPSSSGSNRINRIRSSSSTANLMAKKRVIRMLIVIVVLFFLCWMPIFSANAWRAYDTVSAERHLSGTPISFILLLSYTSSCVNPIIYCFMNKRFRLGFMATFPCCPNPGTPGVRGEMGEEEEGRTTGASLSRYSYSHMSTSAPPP

[15] = Dissociation constant, pKa of the compound; format: physicochemical
[16] = tested on: Rattus norvegicus; test: Inhibition of pentagastrin-stimulated gastric acid secretion in po dosed conscious gastric fistula Sprague-Dawley rat; format: functional; conditions: Stomach
[17] = Stability in dog liver S9 fraction after 15 mins; format: ADME, Canis lupus familiaris; conditions: read-out: Stability
[18] = Stability in human liver S9 fraction after 30 mins; format: ADME; conditions: read-out: Stability
[19] = tested on: Caco-2; test: Apparent permeability from basolateral to apical side of Caco-2 cells; format: ADME, cell-based; conditions: human
[20] = Binding to alpha-glycoprotein; format: ADME; conditions: human, read-out: PPB (converted)
[21] = Stability in human liver S9 fraction after 15 mins; format: ADME; conditions: read-out: Stability
[22] = Stability in rat liver S9 fraction after 30 mins; format: ADME; conditions: read-out: Stability
[23] = Stability in human liver microsome after 15 mins; format: ADME; conditions: liver microsomes, read-out: Stability
[24] = tested on: Caco-2; test: Apparent permeability from apical to basolateral side of Caco-2 cells; format: ADME, cell-based; conditions: human
[25] = Stability in rat liver S9 fraction after 15 mins; format: ADME; conditions: read-out: Stability
[26] = Stability in dog liver S9 fraction after 30 mins; format: ADME, Canis lupus familiaris; conditions: read-out: Stability
[27] = Partition coefficient, log D at pH 7.4; format: physicochemical; conditions: octanol/water

SMILES	bioavailability [1] [%]	clearance [2] [mL/min/kg]	remaining at 0.5 h [3] [%]	Ki ([4]; read-out: Ki) [µM]	half-life [5] [min]	remaining at 0.5 h [6] [%]	Ki [7] [µM]	clearance [8] [mL/min/kg]	half-life [12] [min]	bioavailability [13] [%]	Kb [14] [µM]	pKb [14]	pKa [15]	pKb [9]	further results
O=C(c1ccc(Br)cc1NS(=O)(=O)c1cccc2nccnc12)N1CCCCC1	50	13.8	8	> 10	20.4	21	0.0631								
O=C(c1ccc(Br)cc1NS(=O)(=O)c1cccc2nsnc12)N1CCCCC1	68	11.7	8	> 10	15.6	15		11.7	25.2	33	> 10	< 5		8.8	ED50 [10]: 0.6 mg/kg/h; concentration [11]: 1300 nM
O=C(c1ccc(Cl)cc1NS(=O)(=O)c1cccc2nonc12)N1CCCCC1				> 10			1.58						6.18		
O=C(c1ccc(Cl)cc1NS(=O)(=O)c1cccc2nsnc12)N1CCCCC1	42	20.8		> 10	9.6	3.9	0.0398				> 10	< 5	5.47	8.49	remaining at 0.25 h [17]: 78%; remaining at 0.5 h [18]: 51%; Papp [19]: 1.8 ×10⁻⁶ cm/s; fraction unbound [20]: 0.23; remaining at 0.25 h [21]: 69%; remaining at 0.5 h [22]: 62%; remaining at 0.25 h [23]: 19%; Papp [24]: 22.7 ×10⁻⁶ cm/s; remaining at 0.25 h [25]: 78%; remaining at 0.5 h [26]: 59%; logD [27]: 2.1

Now from value to compound, other results behind:

bioavailability [1] [%]	clearance [2] [mL/min/kg]	remaining at 0.5 h [3] [%]	Ki ([4]; read-out: Ki) [µM]	half-life [5] [min]	remaining at 0.5 h [6] [%]	Ki [7] [µM]	clearance [8] [mL/min/kg]	half-life [12] [min]	bioavailability [13] [%]	Kb [14] [µM]	pKb [14]	pKa [15]	SMILES	pKb [9]	further results
	7	9		21	16	0.398							O=C(c1cc(Cl)ccc1NS(=O)(=O)c1cccc2nsnc12)N1CCCCC1		Ki ([4]; read-out: Log Ki (converted)): > 10 µM
55	6	46	> 10	37.2	60		1.62	90	51				O=C(c1ccc(I)cc1NS(=O)(=O)c1cccc2nccnc12)N1CCOCC1		ED50 [16]: 0.57 mg/kg

Reference: ChEMBL document CHEMBL1137407, “Identification and optimization of anthranilic sulfonamides as novel, selective cholecystokinin-2 receptor antagonists” (J Med Chem, 2006)
